The values that follow come from PMC5148701 (Journal of medicinal chemistry, 2016).

Test [1] has as its target hD2L receptors (Homo sapiens, UniProt P14416). As to the kind of experiment: D2R Gi/o-mediated cAMP inhibition assay. The format is cell-based. Particulars: normalized to maximum cAMP inhibition by quinpirole (100%).
Test [2] has as its target D2L receptors (Homo sapiens, UniProt P14416). As to the kind of experiment: D2R β-arrestin-2 recruitment Tango assay. As to conditions: HTLA, read-out: β-arrestin Emax (%). The format is cell-based.
Test [3] addresses mouse D2Long (Mus musculus, UniProt P61168). As to the kind of experiment: BRET β-arrestin-2 recruitment assay with GRK2 co-expression. The format is cell-based. Particulars: up to 1 µM; GRK2 co-expressed.
The target of test [4] is D2R (Homo sapiens, UniProt P14416). Kind of test: Radioligand binding, D2R.
D2R, sequence (P14416 whole entry): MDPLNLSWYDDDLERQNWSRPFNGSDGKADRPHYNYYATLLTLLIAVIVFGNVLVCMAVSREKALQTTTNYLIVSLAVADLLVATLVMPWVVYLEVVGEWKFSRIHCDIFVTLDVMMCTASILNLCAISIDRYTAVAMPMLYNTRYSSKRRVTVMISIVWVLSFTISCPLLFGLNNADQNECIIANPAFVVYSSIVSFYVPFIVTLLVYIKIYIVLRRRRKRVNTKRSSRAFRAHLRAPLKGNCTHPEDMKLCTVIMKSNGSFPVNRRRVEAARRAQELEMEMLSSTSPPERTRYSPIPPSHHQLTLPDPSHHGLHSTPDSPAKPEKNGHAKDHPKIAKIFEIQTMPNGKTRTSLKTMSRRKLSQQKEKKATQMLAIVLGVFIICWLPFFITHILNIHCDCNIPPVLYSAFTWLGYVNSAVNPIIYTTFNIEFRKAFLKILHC
Test [5] addresses D1R (Homo sapiens, UniProt P21728). Kind of test: Radioligand binding, D1R.
Test [6] addresses D3R (Homo sapiens, UniProt P35462). Kind of test: Radioligand binding, D3R.
For test [7], the target named is T1, D4R (Homo sapiens, UniProt P21917).
T1 sequence (P21917 1-419): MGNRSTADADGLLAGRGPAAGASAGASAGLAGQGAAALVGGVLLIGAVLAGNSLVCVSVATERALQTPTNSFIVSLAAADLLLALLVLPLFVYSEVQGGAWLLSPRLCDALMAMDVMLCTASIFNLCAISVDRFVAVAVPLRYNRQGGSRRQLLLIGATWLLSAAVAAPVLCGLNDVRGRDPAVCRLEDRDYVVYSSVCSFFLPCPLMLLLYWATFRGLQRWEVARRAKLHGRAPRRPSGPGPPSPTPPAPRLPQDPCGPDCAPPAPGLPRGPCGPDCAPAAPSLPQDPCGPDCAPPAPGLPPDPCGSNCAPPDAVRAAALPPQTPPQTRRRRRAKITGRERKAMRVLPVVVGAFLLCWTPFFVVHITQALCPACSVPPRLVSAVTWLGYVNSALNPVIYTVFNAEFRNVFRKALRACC
As to the kind of experiment: Radioligand binding, D4R.

In test [8] the target is D5R (Homo sapiens, UniProt P21918). Kind of test: Radioligand binding, D5R.
D5R, sequence (P21918 whole entry): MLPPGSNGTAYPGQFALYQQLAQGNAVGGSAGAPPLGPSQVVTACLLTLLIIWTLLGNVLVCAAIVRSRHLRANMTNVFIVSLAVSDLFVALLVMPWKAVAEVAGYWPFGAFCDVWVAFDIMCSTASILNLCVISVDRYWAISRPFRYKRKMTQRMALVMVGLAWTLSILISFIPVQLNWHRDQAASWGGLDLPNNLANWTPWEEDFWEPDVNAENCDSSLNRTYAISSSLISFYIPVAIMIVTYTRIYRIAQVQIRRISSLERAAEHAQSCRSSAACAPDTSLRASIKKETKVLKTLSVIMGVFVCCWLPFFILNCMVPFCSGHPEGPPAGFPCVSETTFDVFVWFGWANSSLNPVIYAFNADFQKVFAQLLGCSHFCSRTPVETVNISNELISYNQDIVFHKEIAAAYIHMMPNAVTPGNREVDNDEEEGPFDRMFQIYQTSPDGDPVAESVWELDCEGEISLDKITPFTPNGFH
Test [9] has as its target T2, 5-HT1A (Homo sapiens, UniProt P08908).
T2 sequence (P08908 1-422): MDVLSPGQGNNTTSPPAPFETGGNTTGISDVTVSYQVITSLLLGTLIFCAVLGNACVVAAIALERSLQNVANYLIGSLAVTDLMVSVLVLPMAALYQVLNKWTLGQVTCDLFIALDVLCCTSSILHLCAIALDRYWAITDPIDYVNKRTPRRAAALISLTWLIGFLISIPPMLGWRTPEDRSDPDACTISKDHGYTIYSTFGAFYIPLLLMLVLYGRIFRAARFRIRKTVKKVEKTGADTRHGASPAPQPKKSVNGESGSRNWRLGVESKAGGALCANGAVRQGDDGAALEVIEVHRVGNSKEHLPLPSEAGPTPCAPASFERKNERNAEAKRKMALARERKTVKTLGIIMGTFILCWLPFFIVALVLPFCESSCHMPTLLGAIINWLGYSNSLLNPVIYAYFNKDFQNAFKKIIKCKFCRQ
Kind of test: Radioligand binding, 5-HT1A. Particulars: Binding affinity Ki (nM), 5-HT1A.

Test [10] concerns the target 5-HT1B (Homo sapiens, UniProt P28222). As to the kind of experiment: Radioligand binding, 5-HT1B.
Test [11] addresses 5-HT1D (Homo sapiens, UniProt P28221). As to the kind of experiment: Radioligand binding, 5-HT1D.
Test [12] concerns the target 5-HT2A (Homo sapiens, UniProt P28223). As to the kind of experiment: Radioligand binding, 5-HT2A.
For test [13], the target named is T3, 5-HT2C (Homo sapiens, UniProt P28335).
T3 sequence (P28335 33-458): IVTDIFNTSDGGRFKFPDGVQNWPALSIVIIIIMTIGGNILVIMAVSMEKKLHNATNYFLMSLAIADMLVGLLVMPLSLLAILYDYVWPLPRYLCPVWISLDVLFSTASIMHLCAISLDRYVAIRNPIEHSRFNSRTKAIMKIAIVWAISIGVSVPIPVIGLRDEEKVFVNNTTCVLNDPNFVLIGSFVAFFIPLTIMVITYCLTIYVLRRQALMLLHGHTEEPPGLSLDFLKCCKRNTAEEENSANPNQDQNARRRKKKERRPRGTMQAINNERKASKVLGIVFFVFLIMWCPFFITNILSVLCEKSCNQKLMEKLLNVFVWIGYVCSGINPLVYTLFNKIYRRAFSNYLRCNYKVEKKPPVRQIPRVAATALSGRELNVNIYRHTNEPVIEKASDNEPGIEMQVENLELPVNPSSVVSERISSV
Kind of test: Radioligand binding, 5-HT2C.

Test [14] has as its target 5-HT5A (Homo sapiens, UniProt P47898). Kind of test: Radioligand binding, 5-HT5A.
Test [15] has as its target 5-HT7 (Homo sapiens, UniProt P34969). Kind of test: Radioligand binding, 5-HT7.
Test [16] concerns the target H2-histamine receptor (Homo sapiens, UniProt P25021). Kind of test: Radioligand binding, H2.

SMILES strings stand for the structures. “Also recorded” adds a separate entry of the source.

hD2L receptors, sequence (P14416 whole entry): as the sequence (P14416 whole entry) above
mouse D2Long, sequence (P61168 whole entry): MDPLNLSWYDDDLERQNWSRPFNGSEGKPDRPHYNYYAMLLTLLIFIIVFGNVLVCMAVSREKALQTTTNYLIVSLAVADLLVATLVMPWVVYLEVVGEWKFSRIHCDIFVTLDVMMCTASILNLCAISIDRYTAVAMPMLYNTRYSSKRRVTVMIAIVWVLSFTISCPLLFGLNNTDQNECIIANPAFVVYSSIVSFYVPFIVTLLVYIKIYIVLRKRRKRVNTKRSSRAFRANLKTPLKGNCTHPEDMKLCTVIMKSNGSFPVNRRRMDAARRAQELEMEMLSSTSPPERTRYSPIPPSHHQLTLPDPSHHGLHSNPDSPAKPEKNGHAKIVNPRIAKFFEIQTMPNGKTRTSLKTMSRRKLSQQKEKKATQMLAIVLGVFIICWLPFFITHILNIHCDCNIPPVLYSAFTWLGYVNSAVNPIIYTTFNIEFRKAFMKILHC
5-HT7, sequence (P34969 whole entry, species assumed): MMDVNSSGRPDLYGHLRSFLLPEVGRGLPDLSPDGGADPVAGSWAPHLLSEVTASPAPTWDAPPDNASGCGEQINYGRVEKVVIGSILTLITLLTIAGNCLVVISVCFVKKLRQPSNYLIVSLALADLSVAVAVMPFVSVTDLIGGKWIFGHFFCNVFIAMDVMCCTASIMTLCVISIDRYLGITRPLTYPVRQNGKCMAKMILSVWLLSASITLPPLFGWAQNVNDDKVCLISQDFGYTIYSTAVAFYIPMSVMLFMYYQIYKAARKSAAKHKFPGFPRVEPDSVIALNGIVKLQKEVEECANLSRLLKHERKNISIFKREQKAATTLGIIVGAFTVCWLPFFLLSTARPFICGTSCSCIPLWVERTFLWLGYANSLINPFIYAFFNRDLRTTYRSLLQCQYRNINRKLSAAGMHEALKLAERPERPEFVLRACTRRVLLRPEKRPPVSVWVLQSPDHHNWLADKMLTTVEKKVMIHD
D1R, sequence (P21728 whole entry): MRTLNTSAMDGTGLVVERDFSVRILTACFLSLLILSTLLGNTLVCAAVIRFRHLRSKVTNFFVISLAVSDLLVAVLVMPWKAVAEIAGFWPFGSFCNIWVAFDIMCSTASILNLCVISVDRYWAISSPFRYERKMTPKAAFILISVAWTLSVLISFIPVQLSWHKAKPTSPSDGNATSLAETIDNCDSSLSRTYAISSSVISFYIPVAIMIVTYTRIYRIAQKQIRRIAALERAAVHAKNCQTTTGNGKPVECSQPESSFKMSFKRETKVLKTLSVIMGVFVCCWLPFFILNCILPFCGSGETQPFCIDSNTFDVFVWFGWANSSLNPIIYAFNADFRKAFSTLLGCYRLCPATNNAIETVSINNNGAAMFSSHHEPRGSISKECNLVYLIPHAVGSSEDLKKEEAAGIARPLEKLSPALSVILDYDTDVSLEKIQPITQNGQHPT
D2L receptors, sequence (P14416 whole entry): as the sequence (P14416 whole entry) above
H2-histamine receptor, sequence (P25021 whole entry): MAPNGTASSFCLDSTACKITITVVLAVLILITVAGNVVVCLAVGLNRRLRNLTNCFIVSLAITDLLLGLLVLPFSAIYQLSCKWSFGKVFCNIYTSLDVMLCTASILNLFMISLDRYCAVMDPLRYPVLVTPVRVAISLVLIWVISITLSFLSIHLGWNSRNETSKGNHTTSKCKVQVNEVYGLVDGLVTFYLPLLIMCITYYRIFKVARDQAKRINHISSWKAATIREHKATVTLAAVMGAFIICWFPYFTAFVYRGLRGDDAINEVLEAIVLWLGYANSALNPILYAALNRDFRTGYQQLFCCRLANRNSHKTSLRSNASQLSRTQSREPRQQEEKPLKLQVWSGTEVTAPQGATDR
5-HT1B, sequence (P28222 whole entry, species assumed): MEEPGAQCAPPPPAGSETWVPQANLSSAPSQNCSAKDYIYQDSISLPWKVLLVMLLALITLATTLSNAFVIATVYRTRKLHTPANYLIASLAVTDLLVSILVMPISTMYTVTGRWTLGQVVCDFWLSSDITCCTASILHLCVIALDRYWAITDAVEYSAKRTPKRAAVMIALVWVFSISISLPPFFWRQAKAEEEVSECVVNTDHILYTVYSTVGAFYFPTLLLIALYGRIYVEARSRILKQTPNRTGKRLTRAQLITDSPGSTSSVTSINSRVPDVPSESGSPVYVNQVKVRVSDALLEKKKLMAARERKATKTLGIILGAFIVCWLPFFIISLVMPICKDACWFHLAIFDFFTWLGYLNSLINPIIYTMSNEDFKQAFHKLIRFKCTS
5-HT5A, sequence (P47898 whole entry, species assumed): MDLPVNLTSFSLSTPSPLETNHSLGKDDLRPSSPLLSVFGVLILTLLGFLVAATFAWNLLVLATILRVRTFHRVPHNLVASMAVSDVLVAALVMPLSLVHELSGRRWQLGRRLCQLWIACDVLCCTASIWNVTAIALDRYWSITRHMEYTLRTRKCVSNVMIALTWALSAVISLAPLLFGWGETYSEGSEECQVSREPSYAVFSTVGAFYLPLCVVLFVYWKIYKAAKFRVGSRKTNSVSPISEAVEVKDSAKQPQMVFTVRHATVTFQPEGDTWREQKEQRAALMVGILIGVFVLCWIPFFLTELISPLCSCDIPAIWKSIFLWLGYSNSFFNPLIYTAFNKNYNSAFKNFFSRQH
D3R, sequence (P35462 whole entry): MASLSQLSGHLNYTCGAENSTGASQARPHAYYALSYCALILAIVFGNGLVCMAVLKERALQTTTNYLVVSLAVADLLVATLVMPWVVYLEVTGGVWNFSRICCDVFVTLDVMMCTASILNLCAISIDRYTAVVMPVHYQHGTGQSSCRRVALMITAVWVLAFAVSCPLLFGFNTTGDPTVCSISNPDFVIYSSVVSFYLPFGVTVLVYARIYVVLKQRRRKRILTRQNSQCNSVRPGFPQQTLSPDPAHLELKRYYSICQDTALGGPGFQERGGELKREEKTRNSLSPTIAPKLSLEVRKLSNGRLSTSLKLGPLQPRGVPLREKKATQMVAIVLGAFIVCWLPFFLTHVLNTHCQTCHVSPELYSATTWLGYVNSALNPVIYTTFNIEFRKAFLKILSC
5-HT1D, sequence (P28221 whole entry, species assumed): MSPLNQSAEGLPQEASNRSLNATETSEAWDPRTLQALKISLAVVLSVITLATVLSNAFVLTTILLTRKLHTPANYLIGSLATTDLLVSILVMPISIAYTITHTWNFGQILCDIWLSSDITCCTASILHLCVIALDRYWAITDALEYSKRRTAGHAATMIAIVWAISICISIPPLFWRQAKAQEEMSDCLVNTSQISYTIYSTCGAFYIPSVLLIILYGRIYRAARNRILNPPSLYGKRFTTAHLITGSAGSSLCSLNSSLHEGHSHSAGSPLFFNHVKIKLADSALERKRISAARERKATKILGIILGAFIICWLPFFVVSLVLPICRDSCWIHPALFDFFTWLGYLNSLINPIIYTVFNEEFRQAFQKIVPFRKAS
5-HT2A, sequence (P28223 whole entry, species assumed): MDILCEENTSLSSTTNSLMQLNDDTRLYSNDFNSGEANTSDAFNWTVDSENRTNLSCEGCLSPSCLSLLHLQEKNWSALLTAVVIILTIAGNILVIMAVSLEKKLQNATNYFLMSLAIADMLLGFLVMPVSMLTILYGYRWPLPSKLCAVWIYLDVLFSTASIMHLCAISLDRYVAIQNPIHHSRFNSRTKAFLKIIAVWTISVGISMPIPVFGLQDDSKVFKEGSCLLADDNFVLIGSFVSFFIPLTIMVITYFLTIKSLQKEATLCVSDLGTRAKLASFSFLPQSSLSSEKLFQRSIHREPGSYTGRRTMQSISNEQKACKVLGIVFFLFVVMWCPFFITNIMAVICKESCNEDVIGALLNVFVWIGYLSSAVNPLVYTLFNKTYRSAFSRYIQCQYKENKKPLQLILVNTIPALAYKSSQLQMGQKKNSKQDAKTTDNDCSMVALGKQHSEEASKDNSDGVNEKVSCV

For the compound `Cc1ccc2cccc(N3CCN(CCCCOc4ccc5sc(C(C)C)nc5c4)CC3)c2n1` [Compound 49, 2-Isopropyl-5-(4-(4-(2-methylquinolin-8-yl)piperazin-1-yl)butoxy)benzo[d]thiazole], the “cAMP Emax (%)” value in [1] (HEK293T cells, GloSensor-22F) was found to be 32%. Besides, the maximum response (Emax) (commonly the maximal effect, on the per cent scale that the assay sets) is 30 to 40% in test [1] (HEK-293T, read-out: cAMP Emax (%), HEK293T cells, GloSensor-22F) and below 20% in [2]. Besides, the “β-arrestin-2 recruitment agonist activity in BRET assay” value in test [3] is “not active; also recorded: no β-arrestin recruitment”. Besides, the Ki (commonly the dissociation constant of the complex between target and ligand, obtained from inhibition or displacement) is 45 nM in test [4]; 2000 nM in [5]; 64 nM in test [6]; 7100 nM in test [7]; 1500 nM in test [8]; 14 nM in test [9]. Besides, the Ki was determined as 1600 nM in test [10]; 94 nM in test [11]; 110 nM in test [12]; 140 nM in test [13]; 1400 nM in test [14]; 69 nM in test [15]. In [16], the inhibition constant Ki stood at 430 nM.
